Patent US10112918B2, “15-oxospiramilactone derivatives, preparation method and uses thereof” (Kunming Institute of Botany, The Chinese Academy of Sciences, priority 2013, dated 2018)
Read-outs that look alike come from different tables or passages of the source. One block for each molecule: values may come before it.

What was measured:
Type in all cases: cell-based
[1] = system: HL-60 (human promyelocytic leukemia cells); assay: MTT inhibition of tumor cell growth, HL-60; conditions: Homo sapiens
Outline: (§1)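 IC50 derived by Reed and Muench two-point method from A595 after MTT (4 h) and overnight 10% SDS solubilization. Compound treatment lasted 48 h at 37 °C, screened at 40 μM then 5 concentrations for actives, in triplicate; 5000-10000 cells/well in 10% FBS medium.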

[2] = system: SMMC-7721 (human hepatoma cells); assay: MTT inhibition of tumor cell growth, SMMC-7721; conditions: Homo sapiens
Outline: as §1

[3] = system: A-549 (Human lung adenocarcinoma cells); assay: MTT inhibition of tumor cell growth, A-549; conditions: Homo sapiens
Outline: as §1

[4] = system: MCF-7 (human breast cancer cells); assay: MTT inhibition of tumor cell growth, MCF-7; conditions: Homo sapiens
Outline: as §1

[5] = system: SW-480 (human colon cancer cells); assay: MTT inhibition of tumor cell growth, SW-480; conditions: Homo sapiens
Outline: as §1

[6] = system: Wnt signaling pathway (Top-Flash reporter gene); assay: Top-Flash Wnt reporter gene assay in HEK293T cells with Wnt3a conditioned medium; conditions: Homo sapiens, HEK-293T, 6 h, 6 h
Outline: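 HEK293T transfected with TOP-flash (5 ng/well) plus GFP plasmid for normalization, then treated 6 h with mouse Wnt3a conditioned medium from L cells, with or without compound. GFP-normalized luciferase minus DMSO-only background, scaled to Wnt-induced activity; IC50 at 0.5 relative residual activity from 4-parameter logistic fit.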

[7] = HL-60, 48 h, Table 4, derivatives obtained by reduction of the lactonic ring
[8] = SMMC-7721, 48 h, Table 4, derivatives obtained by reduction of the lactonic ring
[9] = A549, 48 h, Table 4, derivatives obtained by reduction of the lactonic ring
[10] = MCF7, 48 h, Table 4, derivatives obtained by reduction of the lactonic ring
[11] = SW480, 48 h, Table 4, derivatives obtained by reduction of the lactonic ring, read-out: IC50 SW-480
[12] = SW480, 48 h, Table 6, 7-carbonyl derivatives, read-out: IC50 SW-480, 7-carbonyl derivatives
[13] = Table 8, HEK293T, Wnt3a conditioned medium, read-out: IC50 (μM), inhibitory activity on the Wnt signaling pathway
[14] = HL-60, 48 h, Table 5, derivatives having double Michael reaction acceptor
[15] = SMMC-7721, 48 h, Table 5, derivatives having double Michael reaction acceptor
[16] = A549, 48 h, Table 5, derivatives having double Michael reaction acceptor
[17] = MCF7, 48 h, Table 5, derivatives having double Michael reaction acceptor
[18] = SW480, 48 h, Table 5, derivatives having double Michael reaction acceptor, read-out: IC50 SW-480
[19] = SW480, 48 h, Table 6, double Michael reaction acceptor derivatives, read-out: IC50 SW-480, derivatives having double Michael reaction acceptor
[20] = Table 9, HEK293T, Wnt3a conditioned medium, read-out: IC50(μM), inhibitory activity on the Wnt signaling pathway
[21] = HL-60, 48 h, Table 2, derivatives having potential Michael reaction acceptor
[22] = SMMC-7721, 48 h, Table 2, derivatives having potential Michael reaction acceptor
[23] = A549, 48 h, Table 2, derivatives having potential Michael reaction acceptor
[24] = MCF7, 48 h, Table 2, derivatives having potential Michael reaction acceptor
[25] = SW480, 48 h, Table 2, derivatives having potential Michael reaction acceptor, read-out: IC50 SW-480
[26] = HL-60, Table 7 (first), alkaloid derivatives, 48 h
[27] = SMMC-7721, Table 7 (first), alkaloid derivatives, 48 h
[28] = A549, Table 7 (first), alkaloid derivatives, 48 h
[29] = MCF7, Table 7 (first), alkaloid derivatives, 48 h
[30] = SW480, Table 7 (first), alkaloid derivatives, 48 h, read-out: IC50 SW-480
[31] = read-out: IC50 (μM), inhibitory activity on the Wnt signaling pathway

- IC50 [1, 7]: 2.7 µM
- IC50 [2, 8]: 2.18 µM
- IC50 [3, 9]: 2.32 µM
- IC50 [4, 10]: 2.05 µM
- IC50 [5, 11]: 3.37 µM
- IC50 ([6]; Table 10, HEK293T, Wnt3a conditioned medium, read-out: IC50 (μM), inhibitory activity on the Wnt signaling pathway): 32.3 ± 3.01 µM
SMILES: C=C1C(=O)C23CC[C@H]1CC2[C@]1(COS(C)(=O)=O)CCC[C@@](C)(COC(=O)N2CCOCC2)C1CC3=O (stereo partly shown) [Compound 61]

- IC50 [1, 7]: 0.61 µM
- IC50 [2, 8]: 0.57 µM
- IC50 [3, 9]: 0.7 µM
- IC50 [4, 10]: 0.67 µM
- IC50 [5, 11]: 0.59 µM
- IC50 [5, 12]: 0.71 µM
- IC50 [6, 13]: 7.83 ± 0.7 µM
SMILES: C=C1C(=O)C23CC[C@H]1CC2[C@]1(COC(=O)c2cccs2)CCC[C@@](C)(COC(=O)c2cccs2)C1CC3=O (stereo partly shown) [Compound 64]

- IC50 [1, 14]: 0.29 µM
- IC50 [2, 15]: 0.22 µM
- IC50 [3, 16]: 0.35 µM
- IC50 [4, 17]: 0.33 µM
- IC50 [5, 18]: 0.16 µM
- IC50 [5, 19]: 0.26 µM
- IC50 [6, 20]: 7.68 ± 0.19 µM
SMILES: C=C1C(=O)C23CC[C@@H](CC2[C@]2(COC(=O)c4cccs4)CCC[C@@](C)(COC(=O)c4cccs4)C12)C(=C)C3=O (stereo partly shown) [Compound 65]

- IC50 [1, 7]: 0.71 µM
- IC50 [2, 8]: 0.57 µM
- IC50 [3, 9]: 0.8 µM
- IC50 [4, 10]: 0.89 µM
- IC50 [5, 11]: 0.76 µM
- IC50 [5, 12]: 0.7 µM
- IC50 [6, 13]: 8.39 ± 0.63 µM
SMILES: C=C1C(=O)C23CC[C@H]1CC2[C@]1(COC(C)=O)CCC[C@@](C)(COC(=O)c2cccs2)C1CC3=O (stereo partly shown) [Compound 66]

- IC50 [1, 14]: 0.24 µM
- IC50 [2, 15]: 0.13 µM
- IC50 [3, 16]: 0.14 µM
- IC50 [4, 17]: 0.15 µM
- IC50 [5, 18]: 0.1 µM
- IC50 [5, 19]: 0.13 µM
- IC50 [6, 20]: 4.92 ± 0.69 µM
SMILES: C=C1C(=O)C23CC[C@@H](CC2[C@]2(COC(C)=O)CCC[C@@](C)(COC(=O)c4cccs4)C12)C(=C)C3=O (stereo partly shown) [Compound 67]

- IC50 [1, 14]: 0.51 µM
- IC50 [2, 15]: 0.26 µM
- IC50 [3, 16]: 0.56 µM
- IC50 [4, 17]: 0.53 µM
- IC50 [5, 18]: 0.15 µM
- IC50 [5, 19]: 0.65 µM
- IC50 [6, 20]: 11.2 ± 1.54 µM
SMILES: C=C1C(=O)C23CC[C@@H](CC2[C@]2(COS(C)(=O)=O)CCC[C@@](C)(COS(C)(=O)=O)C12)C(=C)C3=O (stereo partly shown) [Compound 74a]

More lines, now with the values behind:

SMILES: C=C1C(=O)C23CC[C@H]1CC2[C@]1(COS(C)(=O)=O)CCC[C@@](C)(COS(C)(=O)=O)C1C[C@H]3O (stereo partly shown) [Compound 72a]
- IC50 [1, 7]: 1.37 µM
- IC50 [2, 8]: 0.93 µM
- IC50 [3, 9]: 1.86 µM
- IC50 [4, 10]: 1.55 µM
- IC50 [5, 11]: 1.85 µM
- IC50 ([5]; SW480, 48 h, Table 6, 7-hydroxyl derivatives and controls, read-out: IC50 SW-480, 7-hydroxyl derivatives): 2.23 µM
- IC50 [6, 13]: 12.6 ± 1.04 µM

SMILES: C=C1C(=O)C23CC[C@H]1CC2[C@]1(COS(C)(=O)=O)CCC[C@@](C)(COS(C)(=O)=O)C1CC3=O (stereo partly shown) [Compound 73a]
- IC50 [1, 7]: 3.97 µM
- IC50 [2, 8]: 0.77 µM
- IC50 [3, 9]: 2.89 µM
- IC50 [4, 10]: 2.36 µM
- IC50 [5, 11]: 2.57 µM
- IC50 [5, 12]: 2.57 µM
- IC50 [6, 13]: 43 ± 5.35 µM

SMILES: C[C@]12CCC[C@@]3(C(=O)OC1)C1C[C@@H]4CCC1(C(=O)[C@H]4CN1CCOCC1)[C@H](O)CC23 (stereo partly shown) [Compound 75]
- IC50 [1, 21]: 3.78 µM
- IC50 [2, 22]: 5.97 µM
- IC50 [3, 23]: 3.64 µM
- IC50 [4, 24]: 4.12 µM
- IC50 [5, 25]: 8.01 µM
- IC50 [6, 20]: > 60 µM

SMILES: C[C@]12CCC[C@@]3(C(=O)OC1)C1C[C@@H]4CCC1(C(=O)[C@@H]4CN1CCOCC1)[C@H](O)CC23 (stereo partly shown) [Compound 76]
- IC50 [1, 21]: 5.28 µM
- IC50 [2, 22]: 13.1 µM
- IC50 [3, 23]: 4.04 µM
- IC50 [4, 24]: 5.96 µM
- IC50 [5, 25]: 7.69 µM
- IC50 [6, 20]: > 60 µM

SMILES: C=C1C(=O)[C@]23CC[C@H]1CC2[C@@]12CCC[C@@]4(C)C5OCCN5C1O[C@@H]3CC42 (stereo partly shown) [Compound 77]
- IC50 [1, 26]: 1.34 µM
- IC50 [2, 27]: 1.04 µM
- IC50 [3, 28]: 2.03 µM
- IC50 [4, 29]: 0.67 µM
- IC50 [5, 30]: 1.97 µM
- IC50 [6, 31]: > 60 µM

SMILES: C=C1C(=O)[C@]23CC[C@H]1CC2[C@@]12CCC[C@@](C)(C(=O)N4CCO[C@H]41)C2C[C@H]3O (stereo partly shown) [Compound 78]
- IC50 ([1]; HL-60, 48 h, Table 7 (first), alkaloid derivatives): 2.73 µM
- IC50 ([2]; SMMC-7721, 48 h, Table 7 (first), alkaloid derivatives): 2.63 µM
- IC50 ([3]; A549, 48 h, Table 7 (first), alkaloid derivatives): 3.09 µM
- IC50 ([4]; MCF7, 48 h, Table 7 (first), alkaloid derivatives): 1.12 µM
- IC50 ([5]; SW480, 48 h, Table 7 (first), alkaloid derivatives, read-out: IC50 SW-480): 2.81 µM
- IC50 ([6]; Table 11, HEK293T, Wnt3a conditioned medium, read-out: IC50 (μM), inhibitory activity on the Wnt signaling pathway): 28.7 ± 0.97 µM

SMILES: C=C1C(=O)[C@]23CC[C@H]1CC2[C@@]12CCC[C@@]4(C)C(=O)N(CCO)[C@@H]1O[C@@H]3CC24 (stereo partly shown) [Compound 83]
- IC50 [1, 26]: 18.6 µM
- IC50 [2, 27]: 18.4 µM
- IC50 [3, 28]: 17.9 µM
- IC50 [4, 29]: 13.2 µM
- IC50 [5, 30]: 12.4 µM
- IC50 [6, 31]: > 60 µM

SMILES: C=C1C(=O)[C@]23CC[C@H]1CC2[C@@]12CCC[C@@]4(C)C(=O)N[C@@H]1O[C@@H]3CC24 (stereo partly shown) [Compound 84]
- IC50 [1, 26]: 18.6 µM
- IC50 [2, 27]: 15.7 µM
- IC50 [3, 28]: 19 µM
- IC50 [4, 29]: 15.7 µM
- IC50 [5, 30]: 14.2 µM
- IC50 [6, 31]: 60.6 ± 3.09 µM

SMILES: C=C1C(=O)[C@]23CC[C@H]1CC2[C@@]12CCC[C@@](C)(CN(CCO)C1)C2C[C@H]3O (stereo partly shown) [Compound 88]
- IC50 [1, 26]: 7.95 µM
- IC50 [2, 27]: 11.2 µM
- IC50 [3, 28]: 9.92 µM
- IC50 [4, 29]: 16.6 µM
- IC50 [5, 30]: 14.4 µM
- IC50 [6, 31]: > 60 µM

SMILES: C=C1C(=O)[C@@]23CC[C@@H](CC2[C@@]24CCC[C@@](C)(CN(CCO)C2)C14)C(=C)[C@@H]3O (stereo partly shown) [Compound 89]
- IC50 [1, 26]: 4.82 µM
- IC50 [2, 27]: 1.48 µM
- IC50 [3, 28]: 3.04 µM
- IC50 [4, 29]: 6.98 µM
- IC50 [5, 30]: 9.84 µM
- IC50 [6, 31]: 8.34 ± 0.9 µM

SMILES: C=C1C(=O)[C@]23CC[C@H]1CC2[C@@]12CCC[C@@](C)(CN(CCO)C1)C2CC3=O (stereo partly shown) [Compound 91]
- IC50 [1, 26]: 14.3 µM
- IC50 [2, 27]: 15.2 µM
- IC50 [3, 28]: 9.24 µM
- IC50 [4, 29]: 15.7 µM
- IC50 [5, 30]: 11.8 µM
- IC50 [6, 31]: 49.4 ± 1.42 µM

SMILES: C=C1C(=O)[C@@]23CC[C@@H](CC2[C@@]24CCC[C@@](C)(CN(CCO)C2)C14)C(=C)C3=O (stereo partly shown) [Compound 93]
- IC50 [1, 26]: 6.61 µM
- IC50 [2, 27]: 11.5 µM
- IC50 [3, 28]: 6.5 µM
- IC50 [4, 29]: 3.57 µM
- IC50 [5, 30]: 2.81 µM
- IC50 [6, 31]: 17 ± 1.28 µM
